Measurements from patent US12065436B2, “Cardiac sarcomere inhibitors” (Cytokinetics, Inc., priority 2018, dated 2024).

Target: bovine cardiac myofibrils (full-length cardiac myosin ATPase in the native sarcomere) (Bos taurus (Bovine), UniProt Q9BE39)
Test: Skinned bovine cardiac myofibril ATPase assay (PK/LDH-coupled)
Type: biochemical
Details: Ca2+ activating to 75% of maximal rate; for CDMF75 IC15: concentration giving 15% inhibition; for IC50: read-out: CDMF75 IC50
Procedure, shortened: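 Inhibition of steady-state ATPase read at 340 nm through a PK/LDH-coupled NADH system (0.5 mM NADH, 1.5 mM PEP). Detergent-skinned bovine cardiac myofibrils, 1 mg/mL, were tested at pH 6.8 in PIPES/MgCl2 with 50 μM ATP and calcium adjusted to give pCa50 or pCa75 activation.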

bovine cardiac myofibrils (full-length cardiac myosin ATPase in the native sarcomere), sequence (Q9BE39 whole entry): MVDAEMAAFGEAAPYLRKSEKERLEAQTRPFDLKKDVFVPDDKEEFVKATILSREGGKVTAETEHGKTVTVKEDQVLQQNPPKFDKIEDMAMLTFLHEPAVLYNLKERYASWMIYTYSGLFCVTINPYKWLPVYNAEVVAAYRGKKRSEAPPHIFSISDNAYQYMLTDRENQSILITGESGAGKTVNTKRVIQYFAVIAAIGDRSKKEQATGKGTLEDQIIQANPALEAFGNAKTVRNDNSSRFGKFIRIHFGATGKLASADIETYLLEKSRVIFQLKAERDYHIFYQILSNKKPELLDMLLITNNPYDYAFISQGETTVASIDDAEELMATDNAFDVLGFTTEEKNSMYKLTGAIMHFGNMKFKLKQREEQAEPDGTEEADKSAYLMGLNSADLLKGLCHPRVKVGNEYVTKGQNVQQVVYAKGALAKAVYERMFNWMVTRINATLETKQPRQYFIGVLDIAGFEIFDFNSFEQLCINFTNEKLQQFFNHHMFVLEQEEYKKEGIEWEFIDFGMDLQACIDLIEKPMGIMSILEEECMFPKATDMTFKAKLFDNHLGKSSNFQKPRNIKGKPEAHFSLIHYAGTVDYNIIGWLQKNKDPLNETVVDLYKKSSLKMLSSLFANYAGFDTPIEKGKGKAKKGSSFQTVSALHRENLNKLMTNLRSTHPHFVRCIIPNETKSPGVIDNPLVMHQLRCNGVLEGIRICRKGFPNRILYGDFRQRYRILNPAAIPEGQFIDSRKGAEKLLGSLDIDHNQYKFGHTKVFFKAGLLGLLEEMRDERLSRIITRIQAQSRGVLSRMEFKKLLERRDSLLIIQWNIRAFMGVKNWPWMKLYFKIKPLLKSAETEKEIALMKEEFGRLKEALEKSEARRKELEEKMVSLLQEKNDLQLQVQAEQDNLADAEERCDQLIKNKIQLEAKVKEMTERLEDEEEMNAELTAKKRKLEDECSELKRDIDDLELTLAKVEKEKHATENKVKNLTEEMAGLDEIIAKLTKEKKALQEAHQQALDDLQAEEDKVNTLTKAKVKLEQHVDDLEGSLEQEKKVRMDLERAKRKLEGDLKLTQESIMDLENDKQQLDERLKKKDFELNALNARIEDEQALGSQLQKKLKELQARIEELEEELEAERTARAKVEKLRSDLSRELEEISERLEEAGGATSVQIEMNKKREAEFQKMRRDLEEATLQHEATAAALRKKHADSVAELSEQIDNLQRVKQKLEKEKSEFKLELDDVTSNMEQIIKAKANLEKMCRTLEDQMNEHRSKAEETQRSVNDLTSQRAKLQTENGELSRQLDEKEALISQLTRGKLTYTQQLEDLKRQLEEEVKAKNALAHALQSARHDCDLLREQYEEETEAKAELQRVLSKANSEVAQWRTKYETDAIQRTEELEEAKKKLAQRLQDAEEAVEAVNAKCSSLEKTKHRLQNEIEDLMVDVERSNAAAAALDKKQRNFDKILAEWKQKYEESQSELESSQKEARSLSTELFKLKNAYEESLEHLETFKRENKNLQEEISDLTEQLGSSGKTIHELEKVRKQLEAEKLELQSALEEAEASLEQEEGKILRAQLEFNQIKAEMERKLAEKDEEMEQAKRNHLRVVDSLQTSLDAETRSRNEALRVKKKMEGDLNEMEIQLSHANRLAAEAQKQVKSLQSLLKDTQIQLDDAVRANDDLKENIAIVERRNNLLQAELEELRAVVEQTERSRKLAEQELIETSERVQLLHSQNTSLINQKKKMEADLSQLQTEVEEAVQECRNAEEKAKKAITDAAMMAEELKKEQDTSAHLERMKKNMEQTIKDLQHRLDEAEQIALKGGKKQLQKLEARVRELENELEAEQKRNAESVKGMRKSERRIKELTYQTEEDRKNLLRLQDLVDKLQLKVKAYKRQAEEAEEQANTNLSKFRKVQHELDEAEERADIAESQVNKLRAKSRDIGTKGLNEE
bovine cardiac myofibrils (full-length cardiac myosin ATPase in the native sarcomere), sequence (P85100 whole entry partner): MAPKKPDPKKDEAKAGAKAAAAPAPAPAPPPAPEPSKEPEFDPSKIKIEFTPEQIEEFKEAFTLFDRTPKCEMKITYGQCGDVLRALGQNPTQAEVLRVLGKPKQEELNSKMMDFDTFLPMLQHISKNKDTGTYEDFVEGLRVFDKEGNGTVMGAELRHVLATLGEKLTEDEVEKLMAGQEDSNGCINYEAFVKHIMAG
bovine cardiac myofibrils (full-length cardiac myosin ATPase in the native sarcomere), sequence (Q3SZE5 whole entry partner): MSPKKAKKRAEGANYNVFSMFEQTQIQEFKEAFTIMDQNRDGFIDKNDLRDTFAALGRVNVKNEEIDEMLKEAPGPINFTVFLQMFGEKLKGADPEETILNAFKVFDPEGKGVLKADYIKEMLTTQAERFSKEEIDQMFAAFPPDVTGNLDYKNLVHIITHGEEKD

Row | SMILES | CDMF75 IC15 | IC50
1 | CCc1nc(-c2ccc3c(c2)CC[C@H]3NC(=O)c2cnn(CC(=O)OC)c2)no1 [Compound 473, methyl (R)-2-(4-((5-(5-ethyl-1,2,4-oxadiazol-3-yl)-2,3-dihydro-1H-inden-1-yl)carbamoyl)-1H-pyrazol-1-yl)acetate] | 1.1 µM | 3.8 µM
2 | CCc1nc(-c2ccc3c(c2)CC[C@H]3NC(=O)c2cnn(CC(C)(C)O)c2)no1 [Compound 476, (R)-N-(5-(5-ethyl-1,2,4-oxadiazol-3-yl)-2,3-dihydro-1H-inden-1-yl)-1-(2-hydroxy-2-methylpropyl)-1H-pyrazole-4-carboxamide] | 4.2 µM | 19.5 µM
3 | CCc1nc(-c2ccc3c(c2)CC[C@H]3NC(=O)c2cnn(C3CN(C(=O)NC)C3)c2)no1 [Compound 479, (R)-N-(5-(5-ethyl-1,2,4-oxadiazol-3-yl)-2,3-dihydro-1H-inden-1-yl)-1-(1-(methylcarbamoyl)azetidin-3-yl)-1H-pyrazole-4-carboxamide] | 4.5 µM | 23.1 µM
4 | CCc1nc(-c2ccc3c(c2)CC[C@H]3NC(=O)c2cnn(C3CN(C(N)=O)C3)c2)no1 [Compound 481, (R)-1-(1-carbamoylazetidin-3-yl)-N-(5-(5-ethyl-1,2,4-oxadiazol-3-yl)-2,3-dihydro-1H-inden-1-yl)-1H-pyrazole-4-carboxamide] | 1.9 µM | 7.8 µM
5 | CCc1nc(-c2ccc3c(c2)CCC3C(=O)Nc2cnn(C)c2)no1 (stereo not shown) [Compound 482, 5-(5-ethyl-1,2,4-oxadiazol-3-yl)-N-(1-methyl-1H-pyrazol-4-yl)-2,3-dihydro-1H-indene-1-carboxamide] | 3.9 µM | 
6 | CCc1nc(-c2ccc3c(c2)CC[C@H]3NC(=O)c2cnn(C3CNC3)c2)no1 [Compound 484, (R)-1-(azetidin-3-yl)-N-(5-(5-ethyl-1,2,4-oxadiazol-3-yl)-2,3-dihydro-1H-inden-1-yl)-1H-pyrazole-4-carboxamide] | 39.2 µM | 39.2 µM
7 | CCc1nc(-c2ccc3c(c2)CC[C@H]3NC(=O)c2cnn(CC(O)CO)c2)no1 (stereo partly drawn) [Compound 485, 1-(2,3-dihydroxypropyl)-N-((R)-5-(5-ethyl-1,2,4-oxadiazol-3-yl)-2,3-dihydro-1H-inden-1-yl)-1H-pyrazole-4-carboxamide] | 1.2 µM | 4.1 µM
8 | CCc1nc(-c2ccc3c(c2)CC[C@H]3NC(=O)c2cn[nH]c2OC)no1 [Compound 486, (R)-N-(5-(5-ethyl-1,2,4-oxadiazol-3-yl)-2,3-dihydro-1H-inden-1-yl)-5-methoxy-1H-pyrazole-4-carboxamide] | 4.1 µM | 24.3 µM
9 | Cc1nc(-c2ccc3c(c2)CC[C@H]3NC(=O)c2cn[nH]c2)no1 [Compound 487, (R)-N-(5-(5-methyl-1,2,4-oxadiazol-3-yl)-2,3-dihydro-1H-inden-1-yl)-1H-pyrazole-4-carboxamide] | 0.9 µM | 3.4 µM
10 | COCc1nc(-c2ccc3c(c2)CC[C@H]3NC(=O)c2cn[nH]c2)no1 [Compound 490, (R)-N-(5-(5-(methoxymethyl)-1,2,4-oxadiazol-3-yl)-2,3-dihydro-1H-inden-1-yl)-1H-pyrazole-4-carboxamide] | 1.6 µM | 6.9 µM
11 | [2H]C([2H])([2H])c1nc(-c2ccc3c(c2)CC[C@H]3NC(=O)c2cn[nH]c2)no1 [Compound 491, (R)-N-(5-(5-(methyl-d3)-1,2,4-oxadiazol-3-yl)-2,3-dihydro-1H-inden-1-yl)-1H-pyrazole-4-carboxamide] | 1.0 µM | 3.7 µM
12 | CCOC(=O)C(C)c1nc(-c2ccc3c(c2)CC[C@H]3NC(=O)c2ccnn2C)no1 (stereo partly drawn) [Compound 492, ethyl 2-(3-((R)-1-(1-methyl-1H-pyrazole-5-carboxamido)-2,3-dihydro-1H-inden-5-yl)-1,2,4-oxadiazol-5-yl)propanoate] | 1.1 µM | 4 µM
13 | CCOC(=O)C(C)c1nc(-c2ccc3c(c2)CCC3NC(=O)c2cnc(C)o2)no1 (stereo not shown) [Compound 493, ethyl 2-(3-(1-(2-methyloxazole-5-carboxamido)-2,3-dihydro-1H-inden-5-yl)-1,2,4-oxadiazol-5-yl)propanoate] | 5.6 µM | 21.4 µM
14 | CCc1nc(-c2ccc3c(c2)C[C@H](O)[C@H]3NC(=O)c2cnn(C)c2)no1 [Compound 495, N-((1S,2S)-5-(5-ethyl-1,2,4-oxadiazol-3-yl)-2-hydroxy-2,3-dihydro-1H-inden-1-yl)-1-methyl-1H-pyrazole-4-carboxamide] | 10.0 µM | 39.2 µM

Continued, values first:

Row | CDMF75 IC15 | IC50 | SMILES
15 | 0.8 µM | 3.1 µM | CCc1nc(-c2ccc3c(c2)CC[C@H]3NC(=O)c2cnn(CCOC)c2)no1 [Compound 472, (R)-N-(5-(5-ethyl-1,2,4-oxadiazol-3-yl)-2,3-dihydro-1H-inden-1-yl)-1-(2-methoxyethyl)-1H-pyrazole-4-carboxamide]
16 | 0.9 µM | 3.8 µM | CCc1nc(-c2ccc3c(c2)CC[C@H]3NC(=O)c2cnn(CC(N)=O)c2)no1 [Compound 475, (R)-1-(2-amino-2-oxoethyl)-N-(5-(5-ethyl-1,2,4-oxadiazol-3-yl)-2,3-dihydro-1H-inden-1-yl)-1H-pyrazole-4-carboxamide]
17 | 8.5 µM | 39.2 µM | CCc1nc(-c2ccc3c(c2)CC[C@H]3NC(=O)c2cnn(C3CN(C(C)=O)C3)c2)no1 [Compound 477, (R)-1-(1-acetylazetidin-3-yl)-N-(5-(5-ethyl-1,2,4-oxadiazol-3-yl)-2,3-dihydro-1H-inden-1-yl)-1H-pyrazole-4-carboxamide]
18 | 2.9 µM | 11.9 µM | CCc1nc(-c2ccc3c(c2)CC[C@H]3NC(=O)c2cnn(C3CN(S(C)(=O)=O)C3)c2)no1 [Compound 478, (R)-N-(5-(5-ethyl-1,2,4-oxadiazol-3-yl)-2,3-dihydro-1H-inden-1-yl)-1-(1-(methylsulfonyl)azetidin-3-yl)-1H-pyrazole-4-carboxamide]
19 | 2.0 µM | 6.8 µM | CCc1nc(-c2ccc3c(c2)CCC3C(=O)Nc2ccnc(C)c2)no1 (stereo not shown) [Compound 483, 5-(5-ethyl-1,2,4-oxadiazol-3-yl)-N-(2-methylpyridin-4-yl)-2,3-dihydro-1H-indene-1-carboxamide]
20 | 1.1 µM | 4.3 µM | CC(C)c1nc(-c2ccc3c(c2)CC[C@H]3NC(=O)c2cn[nH]c2)no1 [Compound 488, (R)-N-(5-(5-isopropyl-1,2,4-oxadiazol-3-yl)-2,3-dihydro-1H-inden-1-yl)-1H-pyrazole-4-carboxamide]
21 | 2.4 µM | 10 µM | CCc1nc(-c2ccc3c(c2)CC[C@H]3NC(=O)c2cnn(CCOC(C)=O)c2)no1 [Compound 494, (R)-2-(4-((5-(5-ethyl-1,2,4-oxadiazol-3-yl)-2,3-dihydro-1H-inden-1-yl)carbamoyl)-1H-pyrazol-1-yl)ethyl acetate]
22 | 7.1 µM | 34.3 µM | CC(CO)c1nc(-c2ccc3c(c2)CC[C@H]3NC(=O)c2ccnn2C)no1 (stereo partly drawn) [Compound 496, N-((1R)-5-(5-(1-hydroxypropan-2-yl)-1,2,4-oxadiazol-3-yl)-2,3-dihydro-1H-inden-1-yl)-1-methyl-1H-pyrazole-5-carboxamide]
